Measurements as given in patent US9163018B2, “Method of treatment of age-related macular degeneration (AMD)” (Prana Biotechnology Limited, priority 2006, dated 2015).

Experiments:
[1] = molecular target: T1, Abeta:Zn (25:50 μM) Synthetic Aggregations (Homo sapiens, UniProt P05067); assay: Disaggregation of Abeta:Zn synthetic aggregates (ThT fluorescence); type: biochemical; conditions: for Disaggregation % Aggregate reduction at 5 μM: 5 μM test compound; for EC50: Abeta:Zn 25:50 μM aggregates
T1 construct: PB Compound Mediated Dissolution of Aggregated Abeta 1-42; purchased Keck Laboratory, Yale University School of Medicine
T1 sequence (P05067 672-713 limits assumed): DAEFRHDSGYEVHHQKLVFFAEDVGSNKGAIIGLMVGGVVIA
Method: PB Compound Mediated Dissolution of Aggregated Abeta 1-42
Abeta1-42, is available from the Keck Laboratory, Yale University School of Medicine. PBS (pH 6.6): Sigma Cat# D-8662. Zn(ZnCl2): BDH Cat#100884E. (Dissolved in water in 1 mM concentration) DMSO: Ajax Cat#2225. Thioflavin T: Sigma Cat# T-3516. (Dissolved in water in 1 mM concentration)
By way of example of an amyloid composition, Abeta is dissolved in distilled water and peptide concentration is assessed by measured absorption at 214 nm in UV spectrometer. An aggregation reactive mixture (per one concentration of one testing compound) is set us as follows: Abeta: 25 μM, ZnCl2 50 μM, ThT 50 μM, PBS to make up to 500 μl. The tube is wrapped with foil and incubated at 37 degrees by rotation for 24 hours. A serial dilution of each test compound is made up in DMSO, for example: 100 μM, 500 μM, 1000 μM, 2500 μM and 5000 μM. The final concentrations are 1, 5, 10, 25 and 50 μM, 5 μl of each of these compounds is placed in a centrifuge tube and 5 μl of DMSO is added to both negative and positive control tubes. 495 μl of aggregates (after 24 hours incubation) is added to the centrifuge tube. The negative control is PBS plus ZnCl2 and ThT and DMSO. The positive control is aggregates plus DMSO. The tubes are incubated at 37 degrees for further 2 hours with rotation. Samples are measured for ThT fluorescence using an LS55 (Perkin Elmer) fluorimeter in a cuvette (500 μl volume). The excitation wavelength is 450 nm and the emission wavelength is 480 nm. Data are analyzed using graph pad prism program. The tested compounds included so called “PB” compounds.

Aβ 1-42 = molecular target: T2, Aβ 1-42 (Homo sapiens, UniProt P05067); assay: Fluorometric H2O2 assay (inhibition of Abeta H2O2 production); type: biochemical; conditions: concentration required to inhibit 50% of Abeta H2O2 production; read-out: H2O2 IC50
T2 construct: The reaction solutions contained Aβ 1-42 at concentrations
T2 sequence (P05067 672-713 limits assumed): as above
Method: Assay 1. Fluorometric H2O2 Assay
A fluorometric assay was used to test the ability of a test compound to inhibit hydrogen peroxide generation by Aβ in the presence of copper based on dichlorofluoroscein diacetate (DCF; Molecular Probes, Eugene Oreg.). The DCF solution (5 mM) in 100% dimethyl sulphoxide (previously purged with argon for 2 hr at 20° C.) was deacetylated in the presence of 0.25M NaOH for 30 min and neutralized at pH 7.4 to a final concentration of 1 mM. Horseradish peroxidase (HRP) stock solution was prepared to 1 μM at pH 7.4. The reactions were carried out in PBS, pH 7.4 in a 96 well plate (total volume=250 μl/well). […] The reaction mixture was incubated at 37 C for 60 min. […] H2O2 concentration may be established by comparing fluorescence with the H2O2 standards, Inhibition of Aβ H2O2 production was assayed by including a given concentration of test compound(s) in the test wells.

[2] = tested on: M17 human neuroblastoma cells; assay: Cytotoxicity, M17 human neuroblastoma cells; type: cell-based; conditions: for Cytotox (% viable) M17 cells at 1 μM: 1 μM test compound; for Cytotox (% viable) M17 cells at 10 μM: 10 μM test compound
Method: (§1) Assay 3. MTS Assay for Cell Viability
(§2) Cell viability is determined using the MTS assay. Culture medium is replaced with fresh neurobasal medium plus B27 supplements minus antioxidants. 1/10th volume MTS solution (Cell Titre 96 Aqueous One, Promega Corporation) and incubated at 37° C., 2 hrs. 200 microliter aliquots are measured with a spectrophotometer at 560 nm.

[3] = tested on: primary cortical neuronal cultured cells; assay: Test compound cytotoxicity, MTS assay, primary cortical neuronal cultures; type: cell-based, mouse; conditions: for Cytotox (% viable) Neuronal cells at 1 μM: 1 μM test compound; for Cytotox (% viable) Neuronal cells at 10 μM: 10 μM test compound
Method: Assay 2. Neurotoxicity Assays
Primary Cortical Neuronal Cultures
Media was then replaced with Neurobasal media (Invitrogen Life Technologies) and B27 supplements (Invitrogen Life Technologies). Cultures were maintained at 37° C. in 5% CO2. Prior to experimentation, the culture medium was replaced with Neurobasal media and B27 minus antioxidants (Invitrogen Life Technologies).
as §1, §2
Assay 4. Assay for Test Compound Cytoxicity
Neuronal cortical cells were cultured for five days as per Assay 2 in NB media and B27 supplement.
On day six the test compounds were added to the neuronal cell cultures in NB media and B27 supplement minus antioxidants.
Test compounds were dissolved in 100% DMSO to a concentration of 2.5 mM (10 mM if excess compound was weighed out per vial—then diluted to 2.5 mM).
Test compounds were not added directly to cells, instead they were added to a 48 well ‘Drug Plate’ as comprised below:
The Drug Plate was incubated at 37° C. for 15 mins. 200 μl of each well was added in triplicate to the corresponding cell plate. The cell plate was incubated at 37 C, for 4 days.
On completion of the assay, 1/10 volume MTS was added per well of plate (ie 25 μl/250 μl). The plates were incubated at 37 C for 2 hrs, and then absorbance was read at 560 nm.

Disaggregation % Aggregate reduction at 5 μM [1] [%]	EC50 [1] [nM]	IC50 (Aβ 1-42) [nM]	Structure (SMILES)	Cytotox (% viable) M17 cells at 1 μM [2] [%]	Cytotox (% viable) M17 cells at 10 μM [2] [%]	Cytotox (% viable) Neuronal cells at 1 μM [3] [%]	Cytotox (% viable) Neuronal cells at 10 μM [3] [%]
49.9	5060	680	CCCCNC(=O)c1cnc2c(O)cccn2c1=O [PB 1159]	115	41.1		
53	4280	720	O=C1c2ccccc2C(=O)N1CCn1cnc2c(O)c(I)ccc2c1=O [PB 1170]	127.4	104.8		
26	19500	480	O=c1c2c(Cl)cc(I)c(O)c2ncn1Cc1ccccn1 [PB 1141]	102.8	137		
58	< 400	1440	O=c1c2cccc(O)c2ncn1CC1CC1 [PB 1118]	106.8	88.6		
49	5270	540	CCC(C)Cn1cnc2c(O)cccc2c1=O (stereo not drawn) [PB 1184]	102.7	47.2		
20.4	> 20000	1640	CCN(CC)CCNC(=O)c1cnc2c(O)cccn2c1=O [PB 1199]	115.2	102.7		
10	6890	> 10000	Oc1cccc2sc(Cc3ccccc3)nc12 [PB 1191]				
57.3	< 400	720	O=c1c2cccc(O)c2ncn1Cc1ccccn1 [PB 1117]	109.2	96		
8.4	> 20000	400	CCc1cnc2c(O)cccn2c1=O [PB 1124]	96.1	27.1		
26	> 20000	240	O=c1c2c(Cl)cc(I)c(O)c2ncn1-c1cccnc1 [PB 1164]	112	111		
35	9500	600	O=C1c2ccccc2C(=O)N1CCn1cnc2c(O)cccc2c1=O [PB 1185]	103.9	106.5		
16	15200	470	O=c1c2c(Cl)ccc(O)c2ncn1CC1CC1 [PB 1132]	86.3	57.6		
31	> 20000	640	O=C(NCc1ccc(F)cc1)c1cnc2c(O)cccn2c1=O [PB 1154]	76.7	54.2		
39.3	7400	390	CCN(CC)C(=O)Cn1cnc2c(O)c(I)ccc2c1=O [PB 1167]	92.2	98.7		
			CN(C)c1ccc(-c2cc(Cl)c3cccnc3c2O)cc1 [PB 851]			94	85
62	4100	480	CCc1cnc2c(O)cccn2c1=S [PB 1143]	93.3	73.7		
22	> 20000	960	O=c1c2cccc(O)c2ncn1-c1ccc(F)cc1 [PB 1156]	92.7	67.5		
21.7	> 20000	430	CCCNC(=O)Cn1cnc2c(O)c(I)ccc2c1=O [PB 1166]	105	115.8		
45	6900	300	CCCCCn1cnc2c(O)c(I)ccc2c1=O [PB 1176]	86.3	38.5		
19.9	> 20000	> 10000	Fc1ccc(NCc2cccc3cccnc23)cc1 [PB 1195]				
24	> 20000	590	O=C(Cn1cnc2c(O)cccc2c1=O)Nc1ccccn1 [PB 1182]	110.1	98.2		
22	14700	960	O=C(Nc1nc2ccc(F)cc2s1)c1cnc2c(O)cccn2c1=O [PB 1174]	60.1	34.2		
59	3900	310	O=c1c2ccc(I)c(O)c2ncn1Cc1cccc(Cn2cnc3c(O)c(I)ccc3c2=O)n1 [PB 1155]				
52	4700	3200	O=c1c2ccc(I)c(O)c2ncn1-c1ccc(F)cc1 [PB 1162]	93.9	36.5		
10	> 20000	> 20000	Oc1ccccc1-c1cn2ccccc2n1 [PB 1173]				
22	> 20000	790	O=c1c2c(Cl)ccc(O)c2ncn1Cc1ccccn1 [PB 1133]				
21.5	> 20000	> 10000	COc1ccc(NCc2cccc3cccnc23)cc1 [PB 1194]				
64	1440	310	CCn1cnc2c(O)c(I)cc(I)c2c1=O [PB 1169]				

Structure (SMILES)	Disaggregation % Aggregate reduction at 5 μM [1] [%]	EC50 [1] [nM]	IC50 (Aβ 1-42) [nM]	Cytotox (% viable) M17 cells at 1 μM [2] [%]	Cytotox (% viable) M17 cells at 10 μM [2] [%]	Cytotox (% viable) Neuronal cells at 1 μM [3] [%]	Cytotox (% viable) Neuronal cells at 10 μM [3] [%]
c1ccc(-c2ccccn2)nc1 [PB 898]	32	> 20000	230				
O=S(=O)(O)c1ccc(-c2ccnc3c2ccc2c(-c4ccc(S(=O)(=O)O)cc4)ccnc23)cc1 [PB 68]	44	8500	> 10000				
Br.C/C=C/Cn1cnc2c(O)c(Cl)cc(Cl)c2c1=O [PB 1126]	69	3700					
Br.CC(Br)CCn1cnc2c(O)c(Cl)cc(Cl)c2c1=O (stereo not drawn) [PB 1114]	19.2	> 20000				101	73
